From PubChem BioAssay (NCI)
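48-hour exposure; five concentrations; linearly interpolated endpoints. TGI: total growth inhibition.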

Key:
Experiment in all cases: NCI-60 cell line screen, 48 h
BT-549 breast = tested on: BT-549 breast
CAKI-1 renal = tested on: CAKI-1 renal
COLO 205 colon = tested on: COLO 205 colon
HOP-62 NSCLC = tested on: HOP-62 NSCLC
HOP-92 NSCLC = tested on: HOP-92 NSCLC
HS 578T breast = tested on: HS 578T breast
LOX IMVI melanoma = tested on: LOX IMVI melanoma
MDA-N = tested on: MDA-N
NCI/ADR-RES ovarian = tested on: NCI/ADR-RES ovarian
OVCAR-4 ovarian = tested on: OVCAR-4 ovarian
OVCAR-5 ovarian = tested on: OVCAR-5 ovarian
RPMI-8226 leukemia = tested on: RPMI-8226 leukemia
SF-295 CNS = tested on: SF-295 CNS
SF-539 CNS = tested on: SF-539 CNS
SR leukemia = tested on: SR leukemia
SW-620 colon = tested on: SW-620 colon
UO-31 renal = tested on: UO-31 renal

Structure (SMILES) | TGI (BT-549 breast) [µM] | TGI (CAKI-1 renal) [µM] | TGI (COLO 205 colon) [µM] | TGI (HOP-62 NSCLC) [µM] | TGI (HOP-92 NSCLC) [µM] | TGI (HS 578T breast) [µM] | TGI (LOX IMVI melanoma) [µM] | TGI (MDA-N) [µM] | TGI (NCI/ADR-RES ovarian) [µM] | TGI (OVCAR-4 ovarian) [µM] | TGI (OVCAR-5 ovarian) [µM] | TGI (RPMI-8226 leukemia) [µM] | TGI (SF-295 CNS) [µM] | TGI (SF-539 CNS) [µM] | TGI (SR leukemia) [µM] | TGI (SW-620 colon) [µM] | TGI (UO-31 renal) [µM]
NCCc1ccc(S(=O)(=O)O)cc1[N+](=O)[O-] | > 100 | > 100 | > 100 | > 100 | > 100 | > 100 | > 100 | > 100 | > 100 | > 100 | > 100 | > 100 | > 100 | > 100 | > 100 | > 100 | > 100
COc1ccc(NC(=S)c2ccc([N+](=O)[O-])o2)cc1 | 4.69 | 14.1 | 2.75 | 8.26 | 30.6 | > 43.1 | 4.33 | 6.11 | 12.2 | 3.07 | 9.53 | 4.72 | 10.6 | 0.549 | 8.63 | 2.9 | 5.09
N#CCc1nc(-c2cc3ccccc3oc2=O)cs1 | 66.8 | > 100 | > 100 | > 100 | > 100 | > 100 | > 100 | > 100 | > 100 | > 100 | > 100 | > 100 | > 100 | > 100 | > 100 | > 100 | > 100
C[C@H]1CCC/C=C/[C@@H]2C[C@H](OC(=O)CN(C)C)C[C@H]2[C@H](O)/C=C/C(=O)O1 | > 71 | > 44.9 | 0.0997 | > 100 | > 56.1 | > 10.5 | 0.219 | > 100 | 0.326 | 9.64 | 5.68 | > 26.6 | > 100 | > 48.2 | 3.49 | 4.53 | 1.48
Cc1nc2ccc(N=Nc3c(C)noc3C)cc2[nH]1 | > 100 | 86.8 | 34.5 | > 100 | 60.2 | 58.4 | 39.2 | > 100 | > 100 | > 100 | > 100 | 92.4 | > 100 | 70.7 | 69.9 | > 100 | > 100
O=C1C(Cl)=CC2(C=C1Cl)CCN=c1c(O)c3c(c(O)c12)=NC=N3 | 75.2 | > 100 | 46.7 | > 100 | > 100 | > 100 | 50.4 | 33.6 | > 100 | > 100 | > 100 | 80.9 | > 100 | 88.4 | 36.5 | > 100 | > 100
CC(C)=CCC[C@@H](C)C1=C(N)C(O)=C(C)C(=O)C1=O | > 75 | > 75 | > 67.9 | > 75 | > 75 | > 75 | > 75 | > 75 | > 38.8 | > 75 | > 75 | > 75 | > 75 | > 75 | > 75 | > 75 | > 75
N/C(=N\N=C\c1nc2ccccc2o1)c1cnccn1 | > 100 | > 100 | > 100 | > 100 | > 100 | > 100 | > 100 | > 100 | > 100 | > 100 | > 100 | > 100 | > 100 | > 100 | > 100 | > 100 | > 100
NS(=O)(=O)c1c(O)c2ccccc2oc1=O | > 100 | > 100 | > 100 | > 100 | > 100 | > 100 | > 100 | > 100 | > 100 | > 100 | > 100 | > 100 | > 100 | > 100 | > 100 | > 100 | > 100
Cc1ccc2c(=O)cc(-c3cc(C)sc3C)[nH]c2n1 | > 100 | > 100 | 7.52 | > 100 | > 100 | 7.15 | > 58.8 | 1.92 | 5.29 | > 100 | > 100 | > 20.5 | 7.54 | 6.25 | > 86.3 | 19.4 | > 100
